Test system: rituximab binding mimetope peptide
Test: Peptide based ELISA: biotinylated mimetope peptides on streptavidin/neutravidin plates capture the antibody
Settings: biotinylated peptide on coated plate, peroxidase labeled secondary anti-Fc antibody
Protocol: FIG. 2 (A) illustrates one embodiment of the lateral flow assay validating that rituximab binding mimetope peptide function in immunoassays and competes with the native antigen (CD20). FIG. 2 (A) is a standard curve for rituximab by peptide based ELISA. Biotinylated peptides are bound onto neutravidin coated ELISA plates. Rituximab is diluted in TBST. […] The solid line indicates the mean of the buffer control and the dashed line represents the mean +10 times the SD of the buffer control.
To confirm that a synthetic peptide captures the antibody, ELISAs were performed. Peptides biotinylated at the C-terminus were coated onto streptavidin coated plates and then incubated with a dilution serious of antibody. Binding was detected via a peroxidase labeled secondary anti-Fc antibody. Specificity was confirmed by lack of signal from either total Ig or using a different antibody. […] The antibody was fluorescently labeled and the cell staining evaluated with or without a molar excess of the presumed mimetope as well as control peptides. […]
FIG. 2 illustrates one embodiment of the lateral flow assay validating that rituximab binding mimetope peptide function in immunoassays and competes with the native antigen (CD20). […] Fluorescently labeled rituximab was incubated with primary CLL cells and evaluated by flow cytometry (solid line). […]

With “rituximab: monoclonal antibody; native antigen CD20” the “sensitivity of peptide ELISA for the antibody” value was 4 µg/mL.

Reference: patent US20150293086A1, “LATERAL FLOW IMMUNOASSAY” (ABREOS BIOSCIENCES, INC., priority 2014, published 2015)
